What all share (experiment): Antibacterial activity, agar dilution MIC
What all share (type): cell-based

Experiment [1] concerns Acinetobacter baumanii ATCC 17978. Conditions: Acinetobacter baumannii, ATCC17978, 20-24 hrs incubation, read-out: minimum inhibitory concentration MIC. An outline of the steps:
(§1)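 CLSI agar dilution. Overnight growth 35° C/5% CO2, MHIIA ± 5% sheep blood (S. pneumoniae). Inoculum 10^8 CFU.mL^−1 via OD600nm. Cpds 2-fold serial in DMSO, stock 20 mg/ml. MIC at 20-24 hrs, 35° C, 5% CO2.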

Experiment [2] concerns Staphylococcus aureus NRS 384. The settings on record: NRS384, 20-24 hrs incubation, read-out: minimum inhibitory concentration MIC. An outline of the steps: as §1
The test system of experiment [3] is Streptococcus pyogenes ATCC BAA-572. Conditions: ATCCBAA572, 20-24 hrs incubation, read-out: minimum inhibitory concentration MIC. In outline:
as §1

Experiment [4] has as its system Acinetobacter baumannii ATCC-BAA-1605. The settings on record: ATCCBAA1605, 20-24 hrs incubation, read-out: minimum inhibitory concentration MIC. In outline: as §1
Experiment [5] deals with Streptococcus pneumoniae ATCC 49619. Conditions: ATCC49619, 20-24 hrs incubation, read-out: minimum inhibitory concentration MIC. An outline of the steps:
as §1

The subject of experiment [6] is Moraxella catarrhalis ATCC 43617. Conditions: ATCC43617, 20-24 hrs incubation, read-out: minimum inhibitory concentration MIC. In outline: as §1
The subject of experiment [7] is Enterococcus faecalis ATCC 29212. The settings on record: ATCC29212, 20-24 hrs incubation, read-out: minimum inhibitory concentration MIC. An outline of the steps:
as §1

Experiment [8] has as its system Haemophilus influenzae ATCC 49247. Conditions: ATCC49247, 20-24 hrs incubation, read-out: minimum inhibitory concentration MIC. In outline:
as §1

Experiment [9] concerns Streptococcus pneumoniae ATCC 6301. The settings on record: ATCC6301, 20-24 hrs incubation, read-out: minimum inhibitory concentration MIC. In outline:
as §1

Drawing on patent US20230068020A1, “MACROLIDE COMPOUND AND ITS USE OF TREATMENT CHRONIC RESPIRATORY DISEASE” (priority 2020, published 2023), this text covers MIC for one molecule.

Values after ≈ are worked out from the molar mass of the structure shown. Where only a bound is given, the exact number is not on record here.

In the case of `CC[C@H]1OC(=O)[C@H](C)[C@@H](O[C@H]2C[C@@](C)(OC)[C@@H](O)[C@H](C)O2)[C@H](C)[C@@H](O[C@@H]2O[C@H](C)C[C@H](N(C)C)[C@H]2O)[C@](C)(O)C[C@@H](C)C(=O)[C@H](C)[C@@H](O)[C@]1(C)O` [Erythromycin, reference compound], the MIC is 64 µg/mL (≈ 87.2 µM) in experiment [1]; 64 µg/mL (≈ 87.2 µM) in [2]; under 0.125 µg/mL in experiment [3]; 16 µg/mL (≈ 21.8 µM) in [4]; under 0.125 µg/mL in experiment [5]; 2 µg/mL (≈ 2.73 µM) in experiment [6]. In addition, the MIC in [7] is 1 µg/mL (≈ 1.36 µM); in [8], 16 µg/mL (≈ 21.8 µM); in [9], under 0.125 µg/mL.
